Results taken from US8119624B2, “Fused phenyl amido heterocyclic compounds” (Pfizer Inc., priority 2006, dated 2012).
Where two headings read alike, the source gives them in different places.

Molecular target: T1, Full-length glucokinase (beta cell isoform) (Homo sapiens, UniProt P35557)
T1 construct: Full-length glucokinase (beta cell isoform) was His-tagged at N-terminus; His tag (N); made in house
T1 sequence (P35557 1-465): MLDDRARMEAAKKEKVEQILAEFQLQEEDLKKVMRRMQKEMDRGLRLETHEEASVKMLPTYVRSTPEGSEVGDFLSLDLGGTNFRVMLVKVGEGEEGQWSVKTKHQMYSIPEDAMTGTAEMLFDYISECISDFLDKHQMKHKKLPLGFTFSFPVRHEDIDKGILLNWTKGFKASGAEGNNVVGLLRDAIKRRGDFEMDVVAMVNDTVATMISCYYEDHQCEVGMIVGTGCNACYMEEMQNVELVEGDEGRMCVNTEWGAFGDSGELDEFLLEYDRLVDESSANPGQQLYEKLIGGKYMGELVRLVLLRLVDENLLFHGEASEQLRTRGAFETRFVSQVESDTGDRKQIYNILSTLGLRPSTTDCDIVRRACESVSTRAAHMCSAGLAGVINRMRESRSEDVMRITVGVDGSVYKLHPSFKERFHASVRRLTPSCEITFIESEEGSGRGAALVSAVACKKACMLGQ
Assay: Glucokinase biochemical assay (PK/LDH-coupled, NADH depletion at 340 nm): % activation, EC50, % max activation
Conditions: 5 mM glucose; for activation at 10 µM: read-out: % Activation at 10 uM; for EC50: read-out: EC50; for Emax: read-out: % Max Activation
In short: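 Activation expressed as (Va/Vo−1)×100, where initial rates with and without compound come from NADH depletion at 340 nm over 200–900 s. Enzyme is His-tagged human beta-cell GK, full length, run at room temperature in HEPES buffer with 1 mM ATP and 5 mM glucose. DMSO 1%.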

[1] = 10 uM compound, % Activation=(Va/Vo−1)×100
[2] = compound at 10 uM, 1 mM ATP, room temperature
[3] = fitted maximum activation, 1 mM ATP

Row | activation at 10 µM [1] [%] | EC50 (GK activation) [nM] | Emax (fitted maximum activation) [%] | activation at 10 µM [2] [%] | EC50 (1 mM ATP, room temperature) [nM] | Emax [3] [%] | % Activation at 10 uM [1] [%] | % Max Activation (fitted maximum activation) [%] | Compound
1 | 91.2 | 1700 | 119 | – | – | – | – | – | Cn1ccc(NC(=O)c2cc(Oc3ccc(C(=O)N4CCC4)cc3)c3c(c2F)OC(C)(C)C3)n1 [Example 191, 4-[4-(Azetidine-1-carbonyl)-phenoxy]-7-fluoro-2,2-dimethyl-2,3-dihydro-benzofuran-6-carboxylic acid (1-methyl-1H-pyrazol-3-yl)-amide]
2 | 86.8 | 1600 | 113 | – | – | – | – | – | Cc1ccc(NC(=O)c2cc(Oc3ccc(S(C)(=O)=O)cc3)c3sc(C)cc3c2)nc1 [Example 329, 2-Methyl-N-(5-methylpyridin-2-yl)-7-[4-(methylsulfonyl)-phenoxy]-1-benzothiophene-5-carboxamide]
3 | 308 | 120 | 293 | – | – | – | – | – | CCS(=O)(=O)c1ccc(Oc2cc(C(=O)Nc3cnn(C)n3)cc3c2CC(C)(C)O3)cc1 [Example 133, 4-(4-Ethanesulfonyl-phenoxy)-2,2-dimethyl-2,3-dihydro-benzofuran-6-carboxylic acid (2-methyl-2H-[1,2,3]triazol-4-yl)-amide]
4 | – | – | – | 33.2 | – | – | – | – | CC(C)N1Cc2c(Oc3ccc(S(C)(=O)=O)cc3)cc(C(=O)Nc3ccn(C)n3)cc2C1=O [Example 384, 2-Isopropyl-N-(1-methyl-1H-pyrazol-3-yl)-7-(4-(methylsulfonyl)-phenoxy)-3-oxoisoindoline-5-carboxamide]
5 | 125 | 650 | 135 | – | – | – | – | – | CN1CCN(C(=O)c2ccc(Oc3cc(C(=O)Nc4ccn(C)n4)cc4c3CC(C)(C)O4)cc2F)CC1 [Example 53, 4-[3-Fluoro-4-(4-methyl-piperazine-1-carbonyl)-phenoxy]-2,2-dimethyl-2,3-dihydro-benzofuran-6-carboxylic acid(1-methyl-1H-pyrazol-3-yl)-amide]
6 | 189 | 98 | 157 | – | – | – | – | – | COCC1(C)Cc2c(Oc3ccc(S(C)(=O)=O)c(F)c3)cc(C(=O)Nc3ccn(C)n3)cc2O1 (centres unmarked) [Example 237, 4-(3-Fluoro-4-methanesulfonyl-phenoxy)-2-methoxymethyl-2-methyl-2,3-dihydro-benzofuran-6-carboxylic acid (1-methyl-1H-pyrazol-3-yl)-amide]
7 | 86.9 | 280 | 83 | – | – | – | – | – | CN(C)C(=O)c1cc(F)c(Oc2cc(C(=O)Nc3ccn(C)n3)cc3c2CC(C)(C)O3)cc1F [Example 109, 4-(4-Dimethylcarbamoyl-2,5-difluoro-phenoxy)-2,2-dimethyl-2,3-dihydro-benzofuran-6-carboxylic acid (1-methyl-1H-pyrazol-3-yl)-amide]
8 | 55.6 | 2700 | 66 | – | – | – | – | – | Cc1ccc(NC(=O)c2cc(Oc3cc(F)ccc3S(C)(=O)=O)c3c(c2)OC(C)(CO)C3)nc1 (centres unmarked) [Example 236, 4-(5-Fluoro-2-methanesulfonyl-phenoxy)-2-hydroxymethyl-2-methyl-2,3-dihydro-benzofuran-6-carboxylic acid (5-methyl-pyridin-2-yl)-amide]
9 | 46.9 | 590 | 50 | – | – | – | – | – | COc1ccnc(NC(=O)c2cc(Oc3ccc(S(=O)(=O)N(C)C)c(F)c3)c3cc(C)oc3c2)c1 [Example 293, 4-{4-[(Dimethylamino)sulfonyl]-3-fluorophenoxy}-N-(4-methoxypyridin-2-yl)-2-methyl-1-benzofuran-6-carboxamide]
10 | 153 | 400 | 156 | – | – | – | – | – | COc1cnc(NC(=O)c2cc(Oc3ccc(S(=O)(=O)N(C)C)c(F)c3)c3cc(C)oc3c2)cn1 [Example 307, 4-{4-[(Dimethylamino)sulfonyl]-3-fluorophenoxy}-N-(5-methoxypyrazin-2-yl)-2-methyl-1-benzofuran-6-carboxamide]
11 | – | – | – | 74.1 | 4500 | 98 | – | – | CCN1Cc2c(Oc3ccc(S(C)(=O)=O)cc3)cc(C(=O)Nc3ccc(C)cn3)cc2C1=O [Example 379, 2-Ethyl-N-(5-methylpyridin-2-yl)-7-(4-(methylsulfonyl)-phenoxy)-3-oxoisoindoline-5-carboxamide]
12 | 172 | 250 | 168 | – | – | – | – | – | CO[C@@H]1CCN(C(=O)c2ccc(Oc3cc(C(=O)Nc4ccn(C)n4)cc4c3CC(C)(C)O4)cc2F)C1 [Example 59, 4-[3-Fluoro-4-((R)-3-methoxy-pyrrolidine-1-carbonyl)-phenoxy]-2,2-dimethyl-2,3-dihydro-benzofuran-6-carboxylic acid(1-methyl-1H-pyrazol-3-yl)-amide]
13 | – | – | – | 131 | 290 | 139 | – | – | Cc1ccc(NC(=O)c2cc(Oc3ccc(S(=O)(=O)C4CC4)c(F)c3)c3c(c2)OC(C)(CO)C3)nc1 (single isomer, unassigned; (+)) [Example 401, (+)-4-(4-Cyclopropanesulfonyl-3-fluoro-phenoxy)-2-hydroxymethyl-2-methyl-2,3-dihydro-benzofuran-6-carboxylic acid(5-methyl-pyridin-2-yl)-amide]
14 | 125 | 1700 | 162 | – | – | – | – | – | Cc1cc2cc(C(=O)Nc3ccn(C)n3)cc(Oc3ccc(S(C)(=O)=O)cc3)c2s1 [Example 330, 2-Methyl-N-(1-methyl-1H-pyrazol-3-yl)-7-[4-(methylsulfonyl)-phenoxy]-1-benzothiophene-5-carboxamide]
15 | 170 | 230 | 158 | – | – | – | – | – | Cn1ccc(NC(=O)c2cc(Oc3ccc(C(=O)N4CC[C@H](F)C4)c(F)c3)c3c(c2)OC(C)(C)C3)n1 [Example 63, 4-[3-Fluoro-4-((S)-3-fluoro-pyrrolidine-1-carbonyl)-phenoxy]-2,2-dimethyl-2,3-dihydro-benzofuran-6-carboxylic acid(1-methyl-1H-pyrazol-3-yl)-amide]
16 | – | 490 | – | – | – | – | 222 | 225 | COCC1(C)Cc2c(Oc3ccc(S(=O)(=O)C4CC4)cc3)cc(C(=O)Nc3ccn(C)n3)cc2O1 (single isomer, unassigned; (+)) [Example 248, (+)-4-(4-Cyclopropanesulfonyl-phenoxy)-2-methoxymethyl-2-methyl-2,3-dihydro-benzofuran-6-carboxylic acid (1-methyl-1H-pyrazol-3-yl)-amide]
17 | 153 | 700 | 165 | – | – | – | – | – | Cn1ccc(NC(=O)c2cc(Oc3ccc(C(=O)N4CC[C@H](O)C4)c(F)c3)c3c(c2)OC(C)(C)C3)n1 [Example 62, 4-[3-Fluoro-4-((S)-3-hydroxy-pyrrolidine-1-carbonyl)-phenoxy]-2,2-dimethyl-2,3-dihydro-benzofuran-6-carboxylic acid(1-methyl-1H-pyrazol-3-yl)-amide]
18 | 196 | 170 | 236 | – | – | – | – | – | Cn1ncc(NC(=O)c2cc(Oc3ccc(S(=O)(=O)C4CC4)c(F)c3)c3c(c2)OC(C)(C)C3)n1 [Example 140, 4-(4-Cyclopropanesulfonyl-3-fluoro-phenoxy)-2,2-dimethyl-2,3-dihydro-benzofuran-6-carboxylic acid (2-methyl-2H-[1,2,3]triazol-4-yl)-amide]
19 | 196 | 130 | 236 | – | – | – | – | – | Cn1ccc(NC(=O)c2cc(Oc3ccc(S(=O)(=O)C4CC4)cc3)c3c(c2)OC(C)(CO)C3)n1 (centres unmarked) [Example 245, 4-(4-Cyclopropanesulfonyl-phenoxy)-2-hydroxymethyl-2-methyl-2,3-dihydro-benzofuran-6-carboxylic acid (1-methyl-1H-pyrazol-3-yl)-amide]
20 | 110 | 73 | 112 | – | – | – | – | – | Cc1ccc(NC(=O)c2cc(Oc3ccc(S(C)(=O)=O)c(F)c3)c3c(c2)OC(C)(C)C3)nc1 [Example 116, 4-(3-Fluoro-4-methanesulfonyl-phenoxy)-2,2-dimethyl-2,3-dihydro-benzofuran-6-carboxylic acid (5-methyl-pyridin-2-yl)-amide]
21 | 105 | 950 | 114 | – | – | – | – | – | COc1ccnc(NC(=O)c2cc(Oc3ccc(S(C)(=O)=O)cc3)c3c(c2)OC(C)(C)C3)c1 [Example 18, 4-(4-Methanesulfonyl-phenoxy)-2,2-dimethyl-2,3-dihydro-benzofuran-6-carbo-xylic acid(4-methoxy-pyridin-2-yl)-amide]
22 | 38.4 | 90 | 43 | – | – | – | – | – | CN(C)C(=O)c1ccc(Oc2cc(C(=O)Nc3ccc(CO)cn3)cc3c2CC(C)(C)O3)cc1 [Example 155, 4-(4-Dimethylcarbamoyl-phenoxy)-2,2-dimethyl-2,3-dihydro-benzofuran-6-carboxylic acid (5-hydroxymethyl-pyridin-2-yl)-amide]
23 | 16.6 | – | – | – | – | – | – | – | Cc1ccc(NC(=O)c2cc(OC(C)C)cc3oc(C(C)C)cc23)nc1 [Example 348, 6-Isopropoxy-2-isopropyl-N-(5-methylpyridin-2-yl)benzofuran-4-carboxamide]
